Tests used:
FLT1 = FLT1 (Homo sapiens, UniProt P17948); assay: FLT1 kinase phosphorylation activity by radioactive labeling; type: biochemical; settings: read-out: FLT1, concentration that inhibits 50% of the kinase activity
Method: 3. […] The inhibition of the FLT1 activity is calculated and expressed as percentage of inhibition relative to the control activity determined in the absence of compound. The percentage of inhibition corresponding to each concentration of molecules is calculated thus: % inhibition=(mean CPM of the control wells−CPM of each)

B16 melanoma = assay: In vivo antitumour activity against B16 melanoma grafted subcutaneously in mice, oral administration; settings: for T − C in days 750 mg: tumours reaching 750 mg
Excerpt: This activity of the compounds of the invention on […] tumours was studied on the B16 melanoma. […]
A product is considered to be active if log10 cell kill is greater than or equal to 0.7. A product is considered to be very active if log10 cell kill is greater than 2.8.
The animals bearing the tumours are randomized before being subjected to the various treatments and controls. In the case of treatment of tumours of the present invention, the treatment was started at an early stage, 3 to 4 days after implantation. […]
The tumours are measured two or three times a week until the tumour reaches approximately 2 g or until the death of the animal if the latter occurs before the tumour reaches 2 g. The animals are autopsied at the time of sacrifice.
The antitumour activity is determined according to the various parameters recorded.

PDGFRβ = PDGFRβ (Homo sapiens, UniProt P09619); assay: PDGFR kinase phosphorylation activity by radioactive labeling; type: biochemical; settings: read-out: PDGFRβ, concentration that inhibits 50% of the kinase activity
Sequence of PDGFRβ (P09619 33-1106, species assumed): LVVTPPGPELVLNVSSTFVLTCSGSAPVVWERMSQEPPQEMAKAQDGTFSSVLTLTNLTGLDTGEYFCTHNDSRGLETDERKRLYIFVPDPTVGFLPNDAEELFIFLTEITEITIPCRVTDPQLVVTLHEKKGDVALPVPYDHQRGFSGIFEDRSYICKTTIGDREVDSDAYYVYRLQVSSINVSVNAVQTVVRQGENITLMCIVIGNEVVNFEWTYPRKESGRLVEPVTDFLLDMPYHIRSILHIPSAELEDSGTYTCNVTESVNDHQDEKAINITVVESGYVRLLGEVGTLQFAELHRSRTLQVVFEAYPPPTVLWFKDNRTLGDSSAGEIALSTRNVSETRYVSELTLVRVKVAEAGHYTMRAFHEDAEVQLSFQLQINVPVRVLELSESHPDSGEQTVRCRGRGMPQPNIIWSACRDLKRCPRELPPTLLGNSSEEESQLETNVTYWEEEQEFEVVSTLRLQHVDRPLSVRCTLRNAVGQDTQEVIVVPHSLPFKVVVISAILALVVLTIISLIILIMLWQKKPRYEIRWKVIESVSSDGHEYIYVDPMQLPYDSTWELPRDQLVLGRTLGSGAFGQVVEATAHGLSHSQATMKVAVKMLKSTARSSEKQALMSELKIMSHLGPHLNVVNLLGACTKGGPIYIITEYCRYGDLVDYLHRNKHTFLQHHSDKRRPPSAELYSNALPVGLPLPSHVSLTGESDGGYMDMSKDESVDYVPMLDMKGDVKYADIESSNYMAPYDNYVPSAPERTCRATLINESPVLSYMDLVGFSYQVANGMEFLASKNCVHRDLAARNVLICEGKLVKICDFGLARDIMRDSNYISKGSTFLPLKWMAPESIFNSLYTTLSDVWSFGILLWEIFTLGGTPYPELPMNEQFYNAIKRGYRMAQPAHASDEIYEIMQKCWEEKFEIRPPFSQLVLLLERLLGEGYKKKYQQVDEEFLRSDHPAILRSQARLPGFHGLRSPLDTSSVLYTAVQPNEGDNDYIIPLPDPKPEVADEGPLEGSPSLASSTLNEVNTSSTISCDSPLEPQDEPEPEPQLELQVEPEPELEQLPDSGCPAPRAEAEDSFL
Method: 4. Screening of Molecules by Measuring, by Radioactive Labeling, the PDGFR Kinase Phosphorylation Activity in the Presence of PLCγ Substrate The test is carried out in a similar manner to that carried out with the FLT1 enzyme by using, instead of 13 nM of Flt1, 16 nM of PDGFR enzyme and mixed in the 96-well plates are 18 μl of GST-PDGFR enzyme at 4 mg/ml (for a purity of 80%) batch VLT802.

VEGFR3 = VEGFR3 (Homo sapiens, UniProt P35916); assay: VEGFR3 kinase inhibition (Table 1); type: biochemical; settings: read-out: VEGFR3, concentration that inhibits 50% of the kinase activity
Sequence of VEGFR3 (P35916 25-1363, species assumed): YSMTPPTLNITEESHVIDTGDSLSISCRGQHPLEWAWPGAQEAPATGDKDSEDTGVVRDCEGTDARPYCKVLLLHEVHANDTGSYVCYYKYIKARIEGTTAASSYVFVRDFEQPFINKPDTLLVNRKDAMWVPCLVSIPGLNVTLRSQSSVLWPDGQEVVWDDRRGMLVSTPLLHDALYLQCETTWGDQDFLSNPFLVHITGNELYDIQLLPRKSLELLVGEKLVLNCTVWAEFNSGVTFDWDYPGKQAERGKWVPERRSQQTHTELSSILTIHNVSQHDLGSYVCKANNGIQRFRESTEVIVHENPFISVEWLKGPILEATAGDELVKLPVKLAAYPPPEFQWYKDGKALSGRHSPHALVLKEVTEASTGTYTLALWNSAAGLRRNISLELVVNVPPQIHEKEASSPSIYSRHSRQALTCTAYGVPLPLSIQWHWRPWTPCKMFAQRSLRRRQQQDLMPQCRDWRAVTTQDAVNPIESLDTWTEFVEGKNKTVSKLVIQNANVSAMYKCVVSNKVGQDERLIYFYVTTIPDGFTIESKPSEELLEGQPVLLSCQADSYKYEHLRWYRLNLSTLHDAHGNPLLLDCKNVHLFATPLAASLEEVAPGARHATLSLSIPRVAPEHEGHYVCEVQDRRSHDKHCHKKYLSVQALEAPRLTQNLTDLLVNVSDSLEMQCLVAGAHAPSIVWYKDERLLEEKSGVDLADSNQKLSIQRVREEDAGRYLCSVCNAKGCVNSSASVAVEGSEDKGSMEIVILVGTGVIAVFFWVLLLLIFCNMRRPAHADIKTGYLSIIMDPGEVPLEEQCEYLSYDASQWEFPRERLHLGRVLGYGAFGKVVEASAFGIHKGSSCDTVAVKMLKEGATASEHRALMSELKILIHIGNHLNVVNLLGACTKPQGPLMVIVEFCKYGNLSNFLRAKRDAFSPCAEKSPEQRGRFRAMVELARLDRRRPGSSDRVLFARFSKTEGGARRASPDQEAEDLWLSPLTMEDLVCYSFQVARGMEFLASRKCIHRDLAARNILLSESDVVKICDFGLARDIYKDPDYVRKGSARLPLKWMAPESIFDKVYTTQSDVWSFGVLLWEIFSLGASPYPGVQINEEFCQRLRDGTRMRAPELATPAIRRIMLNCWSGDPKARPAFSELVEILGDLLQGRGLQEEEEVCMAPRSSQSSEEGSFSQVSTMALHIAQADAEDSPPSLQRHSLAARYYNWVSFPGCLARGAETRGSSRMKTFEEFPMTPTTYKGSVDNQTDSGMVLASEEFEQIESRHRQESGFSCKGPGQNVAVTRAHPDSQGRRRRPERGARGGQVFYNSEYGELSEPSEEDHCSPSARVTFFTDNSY

[1] = PO 61.5 mg/kg/adm, day 3-10 (2x/d)
[2] = PO 99.2 mg/kg/adm, day 3-10 (2x/d)
[3] = PO 62 mg/kg/adm, days 4-14 (2x/d)
[4] = PO 99 mg/kg/adm, days 4-14 (2x/d)
[5] = PO 160.0 mg/kg/adm, days 4-14 (2x/d)

Sequence of FLT1 (P17948 27-1338, species assumed): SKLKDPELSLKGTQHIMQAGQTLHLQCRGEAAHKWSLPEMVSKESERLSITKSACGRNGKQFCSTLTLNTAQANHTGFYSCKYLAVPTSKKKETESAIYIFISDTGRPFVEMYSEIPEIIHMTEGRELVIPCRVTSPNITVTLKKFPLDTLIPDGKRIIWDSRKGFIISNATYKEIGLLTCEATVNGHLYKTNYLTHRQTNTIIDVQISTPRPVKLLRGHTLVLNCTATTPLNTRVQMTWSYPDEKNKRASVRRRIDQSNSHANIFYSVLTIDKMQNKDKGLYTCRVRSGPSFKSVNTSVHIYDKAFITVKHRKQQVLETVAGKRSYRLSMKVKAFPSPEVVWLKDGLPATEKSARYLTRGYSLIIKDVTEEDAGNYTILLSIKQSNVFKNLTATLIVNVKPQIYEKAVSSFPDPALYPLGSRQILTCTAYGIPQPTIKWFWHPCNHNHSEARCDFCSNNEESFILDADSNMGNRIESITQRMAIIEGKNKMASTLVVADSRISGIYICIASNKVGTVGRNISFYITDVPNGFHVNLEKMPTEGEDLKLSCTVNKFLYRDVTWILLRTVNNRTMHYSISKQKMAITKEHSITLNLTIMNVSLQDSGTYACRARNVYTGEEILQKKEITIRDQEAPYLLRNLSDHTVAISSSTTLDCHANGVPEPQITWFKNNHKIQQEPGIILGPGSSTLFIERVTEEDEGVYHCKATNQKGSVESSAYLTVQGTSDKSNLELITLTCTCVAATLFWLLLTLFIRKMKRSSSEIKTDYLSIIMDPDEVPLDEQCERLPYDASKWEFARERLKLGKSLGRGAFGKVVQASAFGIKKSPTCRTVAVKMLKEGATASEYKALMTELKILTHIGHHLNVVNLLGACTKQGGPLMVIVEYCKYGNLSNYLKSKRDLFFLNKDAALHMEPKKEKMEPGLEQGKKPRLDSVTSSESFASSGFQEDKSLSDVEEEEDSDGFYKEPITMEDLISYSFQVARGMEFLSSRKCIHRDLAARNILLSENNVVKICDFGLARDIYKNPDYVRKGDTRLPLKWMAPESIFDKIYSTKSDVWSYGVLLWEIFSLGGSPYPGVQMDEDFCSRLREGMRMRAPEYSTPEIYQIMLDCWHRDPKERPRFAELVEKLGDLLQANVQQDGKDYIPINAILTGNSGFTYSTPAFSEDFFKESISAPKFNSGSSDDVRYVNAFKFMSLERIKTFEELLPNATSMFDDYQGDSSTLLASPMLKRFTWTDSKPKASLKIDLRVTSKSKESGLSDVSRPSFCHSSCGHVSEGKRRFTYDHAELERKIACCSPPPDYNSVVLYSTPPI

**Q.** Which IC50 (FLT1) does the source give for Cl.NC(=O)c1n[nH]cc1NCc1cc(F)cc(NC(=O)Nc2ccc(C(F)(F)F)cc2F)c1 [Example 2, 4-{3-[3-(2-Fluoro-4-trifluoromethylphenyl)ureido]-5-fluorobenzylamino}-1H-pyrazole-3-carboxamide hydrochloride] here?
**A.** 1.3 nM

**Q.** What about the Comments (B16 melanoma; PO 44.0 mg/kg/adm, day 3-10) of the same molecule?
**A.** Active

**Q.** What about the “Total log cell kill” value (B16 melanoma; PO 44.0 mg/kg/adm, day 3-10) of the same molecule?
**A.** 1.0

**Q.** What about the “Death due to the product (day of death)” value (B16 melanoma; PO 44.0 mg/kg/adm, day 3-10, total 352.0 mg/kg, BCM-1979) of the same molecule?
**A.** 0/6

**Q.** And the “Average weight of the tumour in mg on day 11” value (“Average weight … on day 11” below) (B16 melanoma; PO 44.0 mg/kg/adm, day 3-10)?
**A.** 201 mg

**Q.** What about the “T/C in % day 11” value (B16 melanoma; PO 44.0 mg/kg/adm, day 3-10) of the same molecule?
**A.** 27%

**Q.** And the “% BWC (day of low point)” value (B16 melanoma; PO 44.0 mg/kg/adm, day 3-10, low point day 11)?
**A.** +6.6 (11) %

**Q.** And the “T − C in days 750 mg” value (B16 melanoma; PO 44.0 mg/kg/adm, day 3-10)?
**A.** 3.0 days

**Q.** What about the Comments (B16 melanoma; [1]) of the same molecule?
**A.** Active

**Q.** What about the “Total log cell kill” value (B16 melanoma; [1]) of the same molecule?
**A.** 1.7

**Q.** What about the “Death due to the product (day of death)” value (B16 melanoma; PO 61.5 mg/kg/adm, day 3-10 (2x/d), total 984 mg/kg, BCM-1979) of the same molecule?
**A.** 0/6

**Q.** What about the “Average weight … on day 11” value (B16 melanoma; [1]) of the same molecule?
**A.** 46 mg

**Q.** And the “T/C in % day 11” value (B16 melanoma; [1])?
**A.** 6%

**Q.** What about the “% BWC (day of low point)” value (B16 melanoma; PO 61.5 mg/kg/adm, day 3-10 (2x/d), low point day 11) of the same molecule?
**A.** +3.9 (11) %

**Q.** And the “T − C in days 750 mg” value (B16 melanoma; [1])?
**A.** 5.0 days

**Q.** What about the “Total log cell kill” value (B16 melanoma; [2]) of the same molecule?
**A.** 1.8

**Q.** What about the “Death due to the product (day of death)” value (B16 melanoma; PO 99.2 mg/kg/adm, day 3-10 (2x/d), total 1587.2 mg/kg, BCM-1979) of the same molecule?
**A.** 0/6

**Q.** What about the Comments (B16 melanoma; PO 99.2 mg/kg/adm, day 3-10 (2x/d), HNTD = highest nontoxic dose) of the same molecule?
**A.** HNTD active

**Q.** And the “Average weight … on day 11” value (B16 melanoma; [2])?
**A.** 0 mg

**Q.** What about the “T/C in % day 11” value (B16 melanoma; [2]) of the same molecule?
**A.** 0%

**Q.** And the “% BWC (day of low point)” value (B16 melanoma; PO 99.2 mg/kg/adm, day 3-10 (2x/d), low point day 11)?
**A.** −8.1 (11) %

**Q.** What about the “T − C in days 750 mg” value (B16 melanoma; [2]) of the same molecule?
**A.** 5.4 days

**Q.** What about the Comments (B16 melanoma; PO 160.0 mg/kg/adm, day 3-10 (2x/d)) of the same molecule?
**A.** Toxic

**Q.** What about the “Death due to the product (day of death)” value (B16 melanoma; PO 160.0 mg/kg/adm, day 3-10 (2x/d), total 2560.0 mg/kg, BCM-1979, days of death 10, 2d11, 13, 2d14) of the same molecule?
**A.** 6/6

**Q.** And the “% BWC (day of low point)” value (B16 melanoma; PO 160.0 mg/kg/adm, day 3-10 (2x/d), low point day 13)?
**A.** −26.5 (13) %

**Q.** And the IC50 (PDGFRβ)?
**A.** 20 nM

**Q.** With Cl.NC(=O)c1n[nH]cc1NCc1cc(F)cc(NC(=O)Nc2ccc(C(F)(F)F)cc2Cl)c1 [Example 1, 4-{3-[3-(2-Chloro-4-trifluoromethylphenyl)ureido]-5-fluorobenzylamino}-1H-pyrazole-3-carboxamide hydrochloride] as the molecule, how does the IC50 (FLT1) read?
**A.** 3 nM

**Q.** And the IC50 (VEGFR3)?
**A.** 3 nM

**Q.** What about the Comments (B16 melanoma; PO 44 mg/kg/adm, day 4-14) of the same molecule?
**A.** Inactive

**Q.** What about the “Death due to the product (day of death)” value (B16 melanoma; PO 44 mg/kg/adm, day 4-14, total 481 mg/kg, BCM-1948) of the same molecule?
**A.** 0/5

**Q.** What about the “Average weight of the tumour in mg on day 13” value (from here on “Average weight … on day 13”) (B16 melanoma; PO 44 mg/kg/adm, day 4-14) of the same molecule?
**A.** 686 mg

**Q.** And the “T/C in % day 13” value (B16 melanoma; PO 44 mg/kg/adm, day 4-14)?
**A.** 51%

**Q.** And the “% BWC (day of low point)” value (B16 melanoma; PO 44 mg/kg/adm, day 4-14, low point day 15)?
**A.** +10.6 (15) %

**Q.** What about the Comments (B16 melanoma; [3]) of the same molecule?
**A.** Active

**Q.** And the “Total log cell kill” value (B16 melanoma; [3])?
**A.** 2.3

**Q.** What about the “Death due to the product (day of death)” value (B16 melanoma; PO 62 mg/kg/adm, days 4-14 (2x/d), total 1232 mg/kg, BCM-1948) of the same molecule?
**A.** 0/5

**Q.** What about the “Average weight … on day 13” value (B16 melanoma; [3]) of the same molecule?
**A.** 128 mg

**Q.** And the “T/C in % day 13” value (B16 melanoma; [3])?
**A.** 10%

**Q.** And the “% BWC (day of low point)” value (B16 melanoma; PO 62 mg/kg/adm, days 4-14 (2x/d), low point day 5)?
**A.** +1.8 (5) %

**Q.** What about the “T − C in days 750 mg” value (B16 melanoma; [3]) of the same molecule?
**A.** 6.2 days

**Q.** What about the Comments (B16 melanoma; [4]) of the same molecule?
**A.** Active

**Q.** And the “Total log cell kill” value (B16 melanoma; [4])?
**A.** 2.3

**Q.** And the “Death due to the product (day of death)” value (B16 melanoma; PO 99 mg/kg/adm, days 4-14 (2x/d), total 1966 mg/kg, BCM-1948)?
**A.** 0/5

**Q.** What about the “Average weight … on day 13” value (B16 melanoma; [4]) of the same molecule?
**A.** 72 mg

**Q.** And the “T/C in % day 13” value (B16 melanoma; [4])?
**A.** 5%

**Q.** And the “% BWC (day of low point)” value (B16 melanoma; PO 99 mg/kg/adm, days 4-14 (2x/d), low point day 5)?
**A.** −1.0 (5) %

**Q.** And the “T − C in days 750 mg” value (B16 melanoma; [4])?
**A.** 6.2 days

**Q.** What about the “Total log cell kill” value (B16 melanoma; [5]) of the same molecule?
**A.** 2.6

**Q.** And the “Death due to the product (day of death)” value (B16 melanoma; PO 160.0 mg/kg/adm, days 4-14 (2x/d), total 3178 mg/kg, BCM-1948)?
**A.** 0/5

**Q.** And the Comments (B16 melanoma; PO 160.0 mg/kg/adm, days 4-14 (2x/d), HDT = highest dose tested)?
**A.** HDT active

**Q.** What about the “Average weight … on day 13” value (B16 melanoma; [5]) of the same molecule?
**A.** 23 mg

**Q.** What about the “T/C in % day 13” value (B16 melanoma; [5]) of the same molecule?
**A.** 2%

**Q.** And the “% BWC (day of low point)” value (B16 melanoma; PO 160.0 mg/kg/adm, days 4-14 (2x/d), low point day 6)?
**A.** −2.3 (6) %

**Q.** What about the “T − C in days 750 mg” value (B16 melanoma; [5]) of the same molecule?
**A.** 6.8 days

**Q.** And the IC50 (PDGFRβ)?
**A.** 11 nM

— patent US8367715B2, “Pyrazole derivatives, preparation thereof, and therapeutic use thereof” (priority 2009, dated 2013)
